Values joined by “and” are separate entries in the source; they are usually repeats but may differ in a detail not shown here. Identical values can stand only once. Active and inactive are the calls of the source.
Key:
[1] = target: T1, NADPH oxidase 1 (Homo sapiens, UniProt Q9Y5S8); experiment: Late-stage luminescence-based cell-based dose response assay to identify inhibitors of NADPH oxidase 1 (NOX1): Synthesized analogs 3.; type: functional
T1 sequence (Q9Y5S8 whole entry): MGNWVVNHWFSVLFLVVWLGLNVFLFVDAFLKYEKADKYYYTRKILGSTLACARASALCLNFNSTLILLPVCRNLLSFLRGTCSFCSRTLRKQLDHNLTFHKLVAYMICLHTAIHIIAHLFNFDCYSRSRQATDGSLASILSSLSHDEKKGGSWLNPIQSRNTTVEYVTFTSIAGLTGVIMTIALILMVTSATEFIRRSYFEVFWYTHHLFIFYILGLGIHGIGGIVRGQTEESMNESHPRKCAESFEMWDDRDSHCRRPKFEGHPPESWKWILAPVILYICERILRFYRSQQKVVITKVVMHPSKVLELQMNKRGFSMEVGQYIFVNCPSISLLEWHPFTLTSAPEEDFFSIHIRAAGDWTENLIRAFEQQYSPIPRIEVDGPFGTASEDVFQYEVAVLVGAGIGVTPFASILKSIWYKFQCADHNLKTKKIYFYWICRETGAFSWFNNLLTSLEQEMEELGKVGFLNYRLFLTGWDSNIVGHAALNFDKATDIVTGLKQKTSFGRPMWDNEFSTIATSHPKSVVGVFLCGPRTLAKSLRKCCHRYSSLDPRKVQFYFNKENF

[2] = control 3'UTR Renilla luciferase suppression, dose response, counter-screen for Shn3 inhibitor project, cell-based, Clone20-Shn3RL, cherry-picked (AID 624133); type: functional
[3] = cells; type: functional, cell-based; details: HEK-CNG
[4] = target: G-protein coupled receptor 55 (Homo sapiens, UniProt Q9Y2T6); experiment: GPR55 agonists via beta-arrestin recruitment, primary screen, imaging, U2OS cells, beta-arrestin-GFP redistribution (AID 1961); type: functional
[5] = target: T2, Galanin receptor type 3 (Homo sapiens, UniProt O60755); experiment: Fluorescence-based cell-based primary high throughput dose response assay to identify antagonists of the Galanin Receptor 3 (GalR3).; type: functional
T2 sequence (O60755 whole entry): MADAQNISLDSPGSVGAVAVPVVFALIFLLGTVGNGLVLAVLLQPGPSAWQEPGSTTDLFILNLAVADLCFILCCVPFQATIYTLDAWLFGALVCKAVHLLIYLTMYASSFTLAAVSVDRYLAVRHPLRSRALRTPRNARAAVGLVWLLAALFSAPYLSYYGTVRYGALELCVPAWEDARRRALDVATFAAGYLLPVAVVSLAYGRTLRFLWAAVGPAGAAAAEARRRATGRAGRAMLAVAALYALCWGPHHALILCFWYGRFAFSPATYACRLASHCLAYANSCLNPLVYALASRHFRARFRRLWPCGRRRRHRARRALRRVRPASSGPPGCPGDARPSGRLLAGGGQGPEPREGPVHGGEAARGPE

[6] = Shn3 3'UTR reporter inhibitors, dose response, cell-based, Clone20 osteoblasts, firefly luciferase, cherry-picked (AID 624132); type: functional;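 note: firefly luciferase luminescence from reporter carrying the Shn3 3'UTR in osteoblasts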
[7] = target: E3 ubiquitin-protein ligase Mdm2 (Homo sapiens, UniProt Q00987); experiment: enhancers of MDM2-luciferase reporter signal, concentration-effect titration, project on inhibitors of MDM2 ubiquitin ligase, cellular assay, luminescent readout, 384-well plate format (AID 1394); type: functional;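 note: MDM2 E3 inhibitors raise luminescence so EC50 is for signal enhancement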
[8] = target: T3, Tyrosine-protein phosphatase non-receptor type 7 (Homo sapiens, UniProt P35236); experiment: inhibitors of human HePTP phosphatase, […], biochemical, absorbance, leukemia target (AID 521); type: functional
T3 sequence (P35236 whole entry): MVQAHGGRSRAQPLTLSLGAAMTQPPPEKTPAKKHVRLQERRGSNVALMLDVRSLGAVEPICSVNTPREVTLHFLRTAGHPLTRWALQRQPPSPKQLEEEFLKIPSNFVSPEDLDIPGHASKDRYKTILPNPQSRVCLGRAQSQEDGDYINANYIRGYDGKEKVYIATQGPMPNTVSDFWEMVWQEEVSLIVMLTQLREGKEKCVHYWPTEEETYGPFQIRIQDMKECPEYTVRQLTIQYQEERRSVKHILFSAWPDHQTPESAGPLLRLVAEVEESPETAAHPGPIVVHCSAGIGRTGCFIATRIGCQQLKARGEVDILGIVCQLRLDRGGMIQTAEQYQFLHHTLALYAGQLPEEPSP

[9] = inhibitors of Vif binding to APOBEC3G peptide, primary screen, biochemical, TR-FRET, GST-Vif 1-94, biotin-A3G peptide, dose response retest (AID 1117319); type: functional;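 note: TR-FRET signal of purified GST-Vif binding a biotinylated A3G peptide; inhibitors lower the FRET signal by blocking Vif and A3G binding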
[10] = target: T4, Rac GTPase-activating protein 1 (Homo sapiens, UniProt Q9H0H5); experiment: MgcRacGAP GTPase-activating activity inhibitors, confirmation, biochemical, ADP Hunter fluorescence, primary and confirmatory (AID 624330); type: functional
T4 sequence (Q9H0H5 whole entry): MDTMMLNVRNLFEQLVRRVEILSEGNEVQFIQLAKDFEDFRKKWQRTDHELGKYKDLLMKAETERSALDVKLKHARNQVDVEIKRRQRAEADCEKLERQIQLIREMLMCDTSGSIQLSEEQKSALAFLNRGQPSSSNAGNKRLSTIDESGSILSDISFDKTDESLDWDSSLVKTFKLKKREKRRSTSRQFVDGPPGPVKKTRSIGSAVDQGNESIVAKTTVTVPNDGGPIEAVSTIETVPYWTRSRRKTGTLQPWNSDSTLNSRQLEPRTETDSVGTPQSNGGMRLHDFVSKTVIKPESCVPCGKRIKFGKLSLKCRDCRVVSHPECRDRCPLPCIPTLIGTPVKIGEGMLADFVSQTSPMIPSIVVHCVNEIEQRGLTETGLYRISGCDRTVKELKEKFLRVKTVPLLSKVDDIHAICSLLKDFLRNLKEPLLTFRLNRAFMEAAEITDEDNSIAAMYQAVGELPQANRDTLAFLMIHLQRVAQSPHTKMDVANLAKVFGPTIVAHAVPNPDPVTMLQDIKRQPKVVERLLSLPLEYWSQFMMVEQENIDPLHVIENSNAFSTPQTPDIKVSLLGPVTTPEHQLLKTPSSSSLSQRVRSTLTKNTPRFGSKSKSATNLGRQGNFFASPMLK

[11] = target: T5, Leucine aminopeptidase (Plasmodium falciparum 3D7, UniProt Q8IL11); experiment: P. falciparum M17LAP inhibitors, primary screen, biochemical, fluorogenic H-Leu-NHMec substrate, 1536-well (AID 1619); type: functional
T5 sequence (Q8IL11 whole entry): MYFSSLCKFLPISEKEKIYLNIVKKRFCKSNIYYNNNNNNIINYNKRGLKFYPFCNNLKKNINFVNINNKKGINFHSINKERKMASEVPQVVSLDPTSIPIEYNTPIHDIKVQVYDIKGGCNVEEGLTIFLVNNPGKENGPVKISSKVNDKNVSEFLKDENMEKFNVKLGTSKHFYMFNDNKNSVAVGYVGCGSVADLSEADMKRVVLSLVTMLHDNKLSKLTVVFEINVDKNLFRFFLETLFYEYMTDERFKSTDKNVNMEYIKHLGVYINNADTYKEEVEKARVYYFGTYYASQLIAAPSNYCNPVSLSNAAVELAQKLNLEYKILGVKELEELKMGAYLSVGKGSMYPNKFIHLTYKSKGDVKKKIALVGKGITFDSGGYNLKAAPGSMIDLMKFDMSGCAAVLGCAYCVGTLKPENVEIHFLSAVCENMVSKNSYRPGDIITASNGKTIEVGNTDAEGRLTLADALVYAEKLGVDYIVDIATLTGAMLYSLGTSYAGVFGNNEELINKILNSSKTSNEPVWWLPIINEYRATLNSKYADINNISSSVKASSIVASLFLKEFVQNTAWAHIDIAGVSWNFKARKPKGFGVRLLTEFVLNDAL

[12] = target: Hepatocyte nuclear factor 4-alpha (Homo sapiens, UniProt P41235); type: functional, cell-based;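 note: biochemical luminescence-based dose-response counterscreen measuring inhibition of HNF4 dimerization, run alongside a screen for blockers of ABHD5–perilipin-5 interaction; split luciferase complementation of HNF4 fusion proteins in cell lysate measuring dimerization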
[13] = target: T1, NADPH oxidase 1; experiment: Late-stage luminescence-based cell-based dose response assay to identify inhibitors of NADPH oxidase 1 (NOX1): Synthesized analogs.; type: functional
[14] = target: Solute carrier family 12 member 2/member 5 (Homo sapiens, UniProt P55011+Q9H2X9); experiment: KCC2 and NKCC1 inhibition by rubidium flux, cell-based, NKCC1 counter-screen (AID 1734); type: functional, HEK293
[15] = target: Cytochrome P450 3A4 (Homo sapiens, UniProt P08684); details: Potency;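 note: confirmatory qHTS run detecting inhibitors and substrates of CYP3A4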
[16] = target: Cytochrome P450 2D6 (Homo sapiens, UniProt P10635); experiment: qHTS Assay for Inhibitors and Substrates of Cytochrome P450 2D6. [Related pubchem assays: 410 ]; type: ADME; details: read-out: Potency
[17] = target: Cytochrome P450 2C19 (Homo sapiens, UniProt P33261); experiment: qHTS Assay for Inhibitors and Substrates of Cytochrome P450 2C19. [Related pubchem assays: 410 ]; type: ADME; details: read-out: Potency
[18] = target: Cytochrome P450 2C9 (Homo sapiens, UniProt P11712); details: Potency
[19] = tested on: P388; experiment: cells; type: functional; details: Mus musculus
[20] = tested on: P388/ADR; experiment: cells; type: functional; details: Mus musculus
[21] = HeLa 4N DNA content increase, dose response, cell-based, IC50 (AID 1117351); type: functional
[22] = target: T6, Sentrin-specific protease 8 (Homo sapiens, UniProt Q96LD8); type: functional
T6 sequence (Q96LD8 whole entry): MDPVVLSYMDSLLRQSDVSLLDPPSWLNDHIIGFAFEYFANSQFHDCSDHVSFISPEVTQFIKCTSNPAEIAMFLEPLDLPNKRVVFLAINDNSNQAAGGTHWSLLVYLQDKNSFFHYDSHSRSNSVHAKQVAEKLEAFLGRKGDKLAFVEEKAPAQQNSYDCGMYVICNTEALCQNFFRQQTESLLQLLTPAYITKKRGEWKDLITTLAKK

[23] = tested on: SN12K1; experiment: cells; type: functional; details: Homo sapiens
[24] = HeLa 2N DNA content increase, dose response, cell-based, IC50 (AID 1117349); type: functional
[25] = tested on: INS1; experiment: beta cell apoptosis inhibitors, cytokine rescue, dose response, luminescence, retest (AID 449756); type: functional, cell-based; details: Rattus norvegicus;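 note: cell death triggered by IL-1 beta plus TNF-alpha plus IFN-gamma mixture; protective hits raise ATP signal compared with cytokine alone wells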
[26] = target: T6, Sentrin-specific protease 8; type: functional; remark: listed apart in the source
[27] = target: T7, DNA repair protein RAD52 homolog (Homo sapiens, UniProt P43351); type: functional, biochemical
T7 sequence (P43351 whole entry): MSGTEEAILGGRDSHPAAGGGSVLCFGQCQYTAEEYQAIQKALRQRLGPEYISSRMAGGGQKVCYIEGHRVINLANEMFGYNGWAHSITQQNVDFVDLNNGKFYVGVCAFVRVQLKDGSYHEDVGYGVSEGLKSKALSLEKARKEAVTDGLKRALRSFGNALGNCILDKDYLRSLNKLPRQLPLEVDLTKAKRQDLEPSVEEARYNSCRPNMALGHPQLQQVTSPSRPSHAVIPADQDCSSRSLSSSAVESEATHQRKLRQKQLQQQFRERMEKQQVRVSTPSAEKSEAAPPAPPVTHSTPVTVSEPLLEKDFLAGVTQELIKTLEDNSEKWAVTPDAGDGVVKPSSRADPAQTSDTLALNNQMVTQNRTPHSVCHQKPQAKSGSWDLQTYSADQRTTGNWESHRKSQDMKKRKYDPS

[28] = microbe, parasite or virus in culture; type: functional; details: Mycobacterium tuberculosis
[29] = cells; type: functional
[30] = THP-1 cell cytotoxicity, dose response, cytotoxicity control for non-replicating M. tuberculosis project (AID 489025); type: functional
[31] = M. tuberculosis growth inhibition, HTS (AID 449762); type: functional
[32] = Dose-response inhibition of insulin secretion in a rat insulinoma line at 5 mM glucose (AID 1117331); type: functional, cell-based; details: INS-1E
[33] = half-maximal inhibitory concentration for glucagon-like peptide-1 release, STC-1 cell line, dose-response (AID 1117345); type: functional, cell-based
[34] = Glucagon-like peptide 1 release potency, NCI-H716 cell line, dose-response, half-maximal inhibitory concentration (AID 1117344); type: functional, cell-based
[35] = target: 14-3-3 protein gamma (Homo sapiens, UniProt P61981); experiment: modulators of 14-3-3 gamma client binding – dose response (AID 711); type: functional
Chain of 14-3-3 protein gamma (P61981 whole entry): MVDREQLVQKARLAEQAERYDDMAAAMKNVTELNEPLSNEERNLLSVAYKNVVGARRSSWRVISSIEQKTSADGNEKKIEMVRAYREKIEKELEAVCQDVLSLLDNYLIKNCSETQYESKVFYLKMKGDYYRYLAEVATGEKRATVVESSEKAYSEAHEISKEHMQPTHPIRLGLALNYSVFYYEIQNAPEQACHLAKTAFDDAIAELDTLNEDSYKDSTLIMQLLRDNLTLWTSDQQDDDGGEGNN

Chain of Cytochrome P450 3A4 (P08684 whole entry): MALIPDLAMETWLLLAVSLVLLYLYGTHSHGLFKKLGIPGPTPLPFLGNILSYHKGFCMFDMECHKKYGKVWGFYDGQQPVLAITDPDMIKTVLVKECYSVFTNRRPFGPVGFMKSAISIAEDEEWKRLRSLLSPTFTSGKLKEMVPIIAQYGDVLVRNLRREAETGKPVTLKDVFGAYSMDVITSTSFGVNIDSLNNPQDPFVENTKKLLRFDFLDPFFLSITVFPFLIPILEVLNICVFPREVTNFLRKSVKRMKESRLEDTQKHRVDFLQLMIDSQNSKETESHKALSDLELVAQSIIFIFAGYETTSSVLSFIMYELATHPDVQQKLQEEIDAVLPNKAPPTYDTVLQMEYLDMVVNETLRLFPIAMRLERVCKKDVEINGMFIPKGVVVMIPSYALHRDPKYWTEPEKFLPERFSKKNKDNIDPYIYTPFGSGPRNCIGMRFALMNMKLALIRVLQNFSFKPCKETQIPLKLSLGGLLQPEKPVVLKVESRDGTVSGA
Chain of G-protein coupled receptor 55 (Q9Y2T6 whole entry): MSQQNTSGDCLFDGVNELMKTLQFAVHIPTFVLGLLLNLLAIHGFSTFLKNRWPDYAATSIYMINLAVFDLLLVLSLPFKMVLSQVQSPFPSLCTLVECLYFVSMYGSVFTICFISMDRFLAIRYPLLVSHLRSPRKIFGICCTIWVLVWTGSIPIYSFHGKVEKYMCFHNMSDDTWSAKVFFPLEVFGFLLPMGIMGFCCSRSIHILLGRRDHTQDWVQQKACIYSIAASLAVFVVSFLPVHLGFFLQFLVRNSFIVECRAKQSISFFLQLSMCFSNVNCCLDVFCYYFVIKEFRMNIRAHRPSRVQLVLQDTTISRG
Chain of Hepatocyte nuclear factor 4-alpha (P41235 whole entry, the tested form may be a part): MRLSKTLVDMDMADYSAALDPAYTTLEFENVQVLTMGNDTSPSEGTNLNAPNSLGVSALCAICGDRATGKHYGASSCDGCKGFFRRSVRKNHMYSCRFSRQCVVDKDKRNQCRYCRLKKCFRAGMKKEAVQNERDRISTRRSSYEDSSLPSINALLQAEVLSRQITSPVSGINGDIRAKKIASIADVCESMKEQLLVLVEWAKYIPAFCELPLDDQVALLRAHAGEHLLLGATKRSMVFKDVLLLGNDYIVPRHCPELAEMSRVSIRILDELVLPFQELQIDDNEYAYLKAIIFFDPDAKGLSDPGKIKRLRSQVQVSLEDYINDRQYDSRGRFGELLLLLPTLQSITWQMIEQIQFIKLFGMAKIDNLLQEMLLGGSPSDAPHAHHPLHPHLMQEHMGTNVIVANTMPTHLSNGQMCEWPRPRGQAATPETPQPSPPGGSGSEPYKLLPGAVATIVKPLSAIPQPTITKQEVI
Chain of Cytochrome P450 2C9 (P11712 whole entry): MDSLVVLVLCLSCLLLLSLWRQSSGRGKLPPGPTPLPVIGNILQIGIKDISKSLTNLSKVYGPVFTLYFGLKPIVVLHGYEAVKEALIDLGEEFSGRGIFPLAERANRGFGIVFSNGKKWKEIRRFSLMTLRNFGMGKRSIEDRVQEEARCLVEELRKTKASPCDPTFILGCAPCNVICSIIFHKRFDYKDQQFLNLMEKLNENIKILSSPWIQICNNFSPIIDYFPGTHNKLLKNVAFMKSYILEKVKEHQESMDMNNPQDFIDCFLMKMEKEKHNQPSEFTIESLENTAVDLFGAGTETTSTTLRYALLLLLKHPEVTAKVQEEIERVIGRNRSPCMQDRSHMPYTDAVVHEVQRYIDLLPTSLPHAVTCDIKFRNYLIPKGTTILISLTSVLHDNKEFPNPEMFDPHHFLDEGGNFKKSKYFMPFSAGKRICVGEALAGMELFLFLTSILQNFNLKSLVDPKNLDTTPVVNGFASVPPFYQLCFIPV
Chain of Cytochrome P450 2C19 (P33261 whole entry): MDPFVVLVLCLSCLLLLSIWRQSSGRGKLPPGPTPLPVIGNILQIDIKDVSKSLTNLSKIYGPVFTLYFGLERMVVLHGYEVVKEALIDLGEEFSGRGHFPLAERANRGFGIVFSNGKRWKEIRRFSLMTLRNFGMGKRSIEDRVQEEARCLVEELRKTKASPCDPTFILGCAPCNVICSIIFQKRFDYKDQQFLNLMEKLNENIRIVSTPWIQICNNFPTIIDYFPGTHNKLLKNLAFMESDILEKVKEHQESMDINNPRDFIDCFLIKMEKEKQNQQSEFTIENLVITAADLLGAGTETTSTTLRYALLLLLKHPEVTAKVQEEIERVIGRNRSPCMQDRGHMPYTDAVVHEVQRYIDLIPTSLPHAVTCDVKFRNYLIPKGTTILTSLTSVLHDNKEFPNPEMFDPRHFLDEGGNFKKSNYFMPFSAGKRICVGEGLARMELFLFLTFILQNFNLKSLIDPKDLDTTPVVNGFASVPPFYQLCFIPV
Chain of Cytochrome P450 2D6 (P10635 whole entry): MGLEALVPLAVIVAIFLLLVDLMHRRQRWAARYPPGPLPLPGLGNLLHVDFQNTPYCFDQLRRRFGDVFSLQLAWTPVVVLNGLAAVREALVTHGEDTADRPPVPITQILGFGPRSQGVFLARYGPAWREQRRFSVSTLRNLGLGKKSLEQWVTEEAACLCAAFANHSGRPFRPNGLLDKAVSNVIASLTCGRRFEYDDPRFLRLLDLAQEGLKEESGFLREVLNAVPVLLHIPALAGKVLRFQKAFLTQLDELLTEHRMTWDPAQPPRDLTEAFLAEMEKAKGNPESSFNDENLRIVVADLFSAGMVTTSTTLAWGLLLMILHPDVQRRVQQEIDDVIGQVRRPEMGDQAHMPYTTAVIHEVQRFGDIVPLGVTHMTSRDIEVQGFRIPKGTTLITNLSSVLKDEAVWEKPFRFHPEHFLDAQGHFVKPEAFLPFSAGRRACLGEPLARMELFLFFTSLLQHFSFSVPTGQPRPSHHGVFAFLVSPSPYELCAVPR
Chain of E3 ubiquitin-protein ligase Mdm2 (Q00987 whole entry): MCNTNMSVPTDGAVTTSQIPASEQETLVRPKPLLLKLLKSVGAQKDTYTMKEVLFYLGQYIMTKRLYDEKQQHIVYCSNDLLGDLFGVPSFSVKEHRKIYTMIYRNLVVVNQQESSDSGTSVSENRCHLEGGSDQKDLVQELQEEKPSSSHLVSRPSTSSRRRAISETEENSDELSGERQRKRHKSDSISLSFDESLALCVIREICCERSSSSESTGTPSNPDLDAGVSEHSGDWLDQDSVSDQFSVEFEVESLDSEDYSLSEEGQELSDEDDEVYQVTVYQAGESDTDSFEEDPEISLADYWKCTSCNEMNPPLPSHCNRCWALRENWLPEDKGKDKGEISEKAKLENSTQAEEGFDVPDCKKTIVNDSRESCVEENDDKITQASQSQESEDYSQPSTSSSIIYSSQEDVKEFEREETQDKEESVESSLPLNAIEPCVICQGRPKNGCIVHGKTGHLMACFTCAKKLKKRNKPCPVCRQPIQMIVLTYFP

CN1c2ccccc2Sc2cc(C(=O)c3ccc(N=[N+]=[N-])cc3)ccc21
IC50 [1]: > 20 µM (not active)

COc1ccccc1-c1cc(C(F)(F)F)nc(S(=O)(=O)CCCC(=O)Nc2cccnc2Cl)n1
AC50 [2]: 13.1 µM (active)
EC50 [3]: > 29.9 µM (inactive)
EC50 [4]: 2.94 µM (active)
IC50 [5]: > 29.9 µM (inactive)
AC50 [6]: 10.6 µM (active)
EC50 [7]: 2 µM (not active)

Cc1cc(C)cc(OCCCCCNCCO)c1
IC50 [8]: > 100 µM (not active)

COc1ccc2c(c1OC)C(=O)OC2CC(=O)c1ccc(O)c(O)c1 (stereo not given)
IC50 [9]: > 100 µM (active)
IC50 [10]: 56.1 µM (active)
IC50 [11]: 35.2 µM (active)

C=CC(=O)N1c2ccccc2Sc2ccc(NC(=O)OCC)cc21
IC50 [12]: 12.2 µM (inactive)
IC50 [13]: > 50 µM (not active)

Cc1nc(CC(=O)Nc2nc(-c3ccccc3)cs2)cs1
IC50 [14]: 79 µM (active)

O=c1c(O)c(-c2ccc(O)c(O)c2)oc2ccccc12
AC50 [15]: 31.6 µM (inconclusive)
AC50 [16]: 31.6 µM (inconclusive)
AC50 [17]: 25.1 µM (inconclusive)
AC50 [18]: 31.6 µM (inconclusive)

COc1ccc2cc3[n+](cc2c1OC)CCc1cc2c(cc1-3)OCO2 [BERBERINE CHLORIDE]
GI50 [19]: 1.87 µM (inactive)
GI50 [20]: 102 µM (inactive)
IC50 [21]: > 10 µM (inactive)
IC50 [22]: > 100 µM (inactive)
GI50 [23]: 3.93 µM (inactive)
IC50 [24]: > 10 µM (inactive)
AC50 [25]: 3.25 µM (active)
IC50 [26]: 7.66 µM (active)
AC50 [27]: 2.38 µM (active) and 5.69 µM (active)

CCCCNC(=O)Nc1nnc(-c2ccc(OCC)cc2)o1
CC50 [28]: > 40 µM (active)
IC50 [29]: 26.2 µM (active)
CC50 [30]: > 40 µM (active)
IC50 [31]: > 100 µM (active)

O=C(CBr)Nc1ccc(Cl)cc1C(=O)c1ccccc1F
IC50 [32]: > 33.3 µM (inactive)
IC50 [33]: > 40 µM (inactive)
IC50 [34]: > 40 µM (inactive)

CCOC(=O)N1CCC(NC(=O)CSCc2nc(-c3ccc(OC)c(OC)c3)oc2C)CC1
IC50 [35]: > 50 µM (not active)

Source: ChEMBL document CHEMBL1201862, “PubChem BioAssay data set” (2004)
